From patent US8748412B2, “Phenylalanine derivatives and their use as non-peptide GLP-1 receptor modulators” (Argusina Bioscience Inc., priority 2011, dated 2014)

The compounds below were run against T1, human GLP1R (Homo sapiens, UniProt P43220) (assay: Human GLP-1 receptor transfected cell assay (MRE/CRE-luciferase reporter gene, agonist activity)). Settings: 6 h; conc. 10 μM; percentage of the activity of the control; read-out: Agonist Activity.
T1 construct: expressed in transfected cells; host or cells: CHO cells (ATCC), transient transfection with pCMV-human GLP1R
Format: cell-based
In short: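 CHO cells transiently co-transfected with human GLP1R and MRE/CRE-driven luciferase reporter plasmids. Compound or GLP-1 (7-36 amide) standard dilution series added for 6 h at 37 °C, 5% CO2. Agonist activity read as Bright-Glo luciferase luminescence.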

T1 sequence (P43220 24-463): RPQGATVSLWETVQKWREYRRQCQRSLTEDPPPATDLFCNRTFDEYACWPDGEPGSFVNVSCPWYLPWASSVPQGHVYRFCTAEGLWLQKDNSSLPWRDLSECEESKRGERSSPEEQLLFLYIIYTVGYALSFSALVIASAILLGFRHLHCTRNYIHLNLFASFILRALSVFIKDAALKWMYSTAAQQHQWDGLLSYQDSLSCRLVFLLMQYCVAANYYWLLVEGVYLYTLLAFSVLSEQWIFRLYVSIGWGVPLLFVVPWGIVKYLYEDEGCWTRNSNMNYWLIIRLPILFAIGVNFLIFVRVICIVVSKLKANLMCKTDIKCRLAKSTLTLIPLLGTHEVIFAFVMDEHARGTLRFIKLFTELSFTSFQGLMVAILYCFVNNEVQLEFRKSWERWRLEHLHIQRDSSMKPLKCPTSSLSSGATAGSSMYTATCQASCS

Structure (SMILES) | activation at 10 µM [%]
Cc1ccc(-c2cccc(NC(=O)NC(Cc3ccc(-c4noc(-c5ccc(NC(=O)OC(C)(C)C)cc5)n4)c(F)c3)C(=O)O)c2)cc1 (stereo not shown) [Compound 13R] | > 60
CC(C)(C)OC(=O)Nc1ccc(-c2nc(-c3ccc(CC(NC(=O)c4cccc(N5CCCCC5)c4)C(=O)O)cc3F)no2)cc1 (stereo not shown) [Compound 11Y] | 20 to 40
CC(C)(C)OC(=O)Nc1ccc(-c2nc(-c3ccc(CC(NC(=O)Nc4ccc(-c5cccc(F)c5)cn4)C(=O)O)cc3F)no2)cc1 (stereo not shown) [Compound 13W] | > 60
CC(C)(C)OC(=O)Nc1ccc(-c2nc(-c3ccc(CC(NC(=O)c4cn(-c5ccc(C(C)(C)C)cc5)nn4)C(=O)O)cc3F)no2)cc1 (stereo not shown) [Compound 11V] | > 60
CC(C)(C)OC(=O)Nc1ccc(-c2nc(-c3ccc(CC(NC(=O)Nc4ccc(C(F)(F)F)cc4)C(=O)O)cc3F)no2)cc1 (stereo not shown) [Compound 13H] | > 60
CC(C)(C)OC(=O)Nc1ccc(-c2nc(-c3ccc(CC(NC(=O)Nc4ccccc4)C(=O)O)cc3F)no2)cc1 (stereo not shown) [Compound 13D] | 40 to 60
Cc1ccc(-c2cc(NC(=O)NC(Cc3ccc(-c4noc(-c5ccc(NC(=O)OC(C)(C)C)cc5)n4)c(F)c3)C(=O)O)[nH]n2)cc1 (stereo not shown) [Compound 12G] | > 60
Cc1ccc(-c2ccc(C(=O)NC(Cc3ccc(-c4noc(-c5ccc(NC(=O)OC(C)(C)C)cc5F)n4)c(F)c3)C(=O)O)o2)cc1 (stereo not shown) [Compound 14A] | > 60
Cc1ccc(-c2ccc(C(=O)NC(Cc3ccc(-c4noc(-c5ccc(NC(=O)OC(C)(C)C)c(C)c5)n4)c(F)c3)C(=O)O)o2)cc1 (stereo not shown) [Compound 14D] | 40 to 60
COc1ccc(-c2ccc(NC(=O)NC(Cc3ccc(-c4noc(-c5ccc(NC(=O)OC(C)(C)C)cc5)n4)c(F)c3)C(=O)O)nc2)cc1 (stereo not shown) [Compound 13Y] | > 60
Cc1cc(C)c(S(=O)(=O)NC(Cc2ccc(-c3noc(-c4ccc(NC(=O)OC(C)(C)C)cc4)n3)c(F)c2)C(=O)O)c(C)c1 (stereo not shown) [Compound 11I] | 40 to 60
CC(C)(C)OC(=O)Nc1ccc(-c2nc(-c3ccc(CC(NS(=O)(=O)c4ccc(OC(F)(F)F)cc4)C(=O)O)cc3F)no2)cc1 (stereo not shown) [Compound 11L] | 20 to 40

Same assay, conditions: 6 h; concentration 1 μM; read-out: Activity (agonist), percentage of the activity of the control

Structure (SMILES) | activation at 1 µM [%]
CC(C)c1ccc(-c2ccc(C(=O)N[C@H](Cc3ccc(F)c(-c4noc(-c5ccc(NC(=O)OC(C)(C)C)cc5)n4)c3)C(=O)O)o2)cc1 [Compound 6V] | 20 to 40
Cc1ccc(-c2ccc(C(=O)N[C@H](Cc3cc(Br)cc(-c4noc(-c5ccc(NC(=O)OC(C)(C)C)cc5)n4)c3)C(=O)O)o2)cc1 [Compound 6Y] | > 60
Cc1ccc(-c2ccc(C(=O)N[C@H](Cc3ccc(-c4noc(-c5ccc(NC(=O)OC(C)(C)C)cc5)n4)cn3)C(=O)O)o2)cc1 [Compound 6Q] | 40 to 60
Cc1ccc(-c2cccc(C(=O)NC(Cc3ccc(-c4noc(-c5ccc(NC(=O)OC(C)(C)C)cc5)n4)nc3)C(=O)O)c2)cc1 (stereo not shown) [Compound 5K] | > 60
Cc1ccc(-c2ccc(C(=O)NC(Cc3cc(F)cc(C#Cc4ccc(NC(=O)OC(C)(C)C)cc4)c3)C(=O)O)o2)cc1 (stereo not shown) [Compound 7E] | > 60
Cc1ccc(-c2ccc(C(=O)N[C@H](Cc3ccc(-c4noc(-c5ccc(NC(=O)OC(C)(C)C)cc5)n4)c(C)c3)C(=O)O)o2)cc1 [Compound 6R] | > 60

Same assay, conditions: 6 h; concentration 3 μM; read-out: Activity (agonist), percentage of the activity of the control

Structure (SMILES) | activation at 3 µM [%]
Cc1ccc(-c2ccc(C(=O)N[C@H](Cc3cc(F)cc(-c4noc(-c5ccc(NC(=O)OC(C)(C)C)cc5)n4)c3)C(=O)O)o2)cc1 [Compound 6X] | 40 to 60
CC(C)(C)OC(=O)Nc1ccc(-c2nc(-c3ccc(CC(NC(=O)c4cc(-c5ccc(F)cc5)n[nH]4)C(=O)O)cc3F)no2)cc1 (stereo not shown) [Compound 3R] | > 60
CC(C)(C)OC(=O)Nc1ccc(-c2nc(-c3ccc(CC(NC(=O)c4ccc(-c5ccccn5)s4)C(=O)O)cc3F)no2)cc1 (stereo not shown) [Compound 1X] | 40 to 60
CC(C)(C)OC(=O)Nc1ccc(-c2nc(-c3ccc(CC(NC(=O)Nc4ccc(-c5ccccc5F)cn4)C(=O)O)cc3F)no2)cc1 (stereo not shown) [Compound 5C] | > 60

Same assay, conditions: 6 h; concentration 3.16 μM; read-out: Activity (agonist), percentage of the activity of the control

Structure (SMILES) | activation at 3.16 µM [%]
CC(C)(C)OC(=O)Nc1ccc(-c2nc(-c3ccc(CC(NC(=O)Nc4ccnc(Cl)c4)C(=O)O)cc3F)no2)cc1 (stereo not shown) [Compound 4L] | 40 to 60
Cc1ccc(-c2nc(C(=O)NC(Cc3ccc(-c4noc(-c5ccc(NC(=O)OC(C)(C)C)cc5)n4)c(F)c3)C(=O)O)c[nH]2)cc1 (stereo not shown) [Compound 2R] | > 60
CC(C)c1ccc(-c2ccc(C(=O)NC(Cc3ccc(-c4noc(-c5ccc(NC(=O)OC(C)(C)C)cc5)n4)c(F)c3)C(=O)O)o2)cc1 (stereo not shown) [Compound 1O] | 20 to 40
CC(C)(C)OC(=O)Nc1ccc(-c2nc(-c3ccc(CC(NC(=O)c4cccc(-c5ccc(C6CC6)cc5)n4)C(=O)O)cc3F)no2)cc1 (stereo not shown) [Compound 2M] | > 60
COc1ccc(N2CCN(C(=O)NC(Cc3ccc(-c4noc(-c5ccc(NC(=O)OC(C)(C)C)cc5)n4)c(F)c3)C(=O)O)CC2)cc1 (stereo not shown) [Compound 4J] | 40 to 60
Cc1cc(-c2nc(C(=O)NC(Cc3ccc(-c4noc(-c5ccc(NC(=O)OC(C)(C)C)cc5)n4)c(F)c3)C(=O)O)c[nH]2)ccc1F (stereo not shown) [Compound 2Q] | > 60
CC(C)(C)OC(=O)Nc1ccc(-c2nc(-c3ccc(CC(NC(=O)c4c[nH]c(-c5ccc(Br)cn5)n4)C(=O)O)cc3F)no2)cc1 (stereo not shown) [Compound 2V] | 40 to 60
Cc1cc(Cn2cc(C(=O)NC(Cc3ccc(-c4noc(-c5ccc(NC(=O)OC(C)(C)C)cc5)n4)c(F)c3)C(=O)O)cn2)ccc1F (stereo not shown) [Compound 3F] | 20 to 40
CC(C)(C)OC(=O)Nc1ccc(-c2nc(-c3ccc(CC(NC(=O)N4CCN(C(=O)OC(C)(C)C)CC4)C(=O)O)cc3F)no2)cc1 (stereo not shown) [Compound 4F] | 40 to 60

Same assay, conditions: 6 h; concentration 5 μM; read-out: Activity (agonist), percentage of the activity of the control

Structure (SMILES) | activation at 5 µM [%]
Cc1ccc(-c2ccc(C(=O)NC(Cc3ccc(OC(=O)c4ccc(NC(=O)OC(C)(C)C)cc4)c(F)c3)C(=O)O)o2)cc1 (stereo not shown) [Compound 1A] | > 60

Same assay, conditions: 6 h; concentration 10 μM; read-out: Activity (agonist), percentage of the activity of the control

Structure (SMILES) | activation at 10 µM [%]
CC(C)(C)OC(=O)Nc1ccc(-c2nc(-c3ccc(CC(NC(=O)c4cccc(-c5ccc(F)cc5)n4)C(=O)O)cc3F)no2)cc1 (stereo not shown) [Compound 1T] | 40 to 60
CC(C)(C)OC(=O)Nc1ccc(-c2nc(-c3ccc(CC(NC(=O)c4ccn(-c5ccc(C(F)(F)F)cc5)n4)C(=O)O)cc3F)no2)cc1 (stereo not shown) [Compound 3J] | 40 to 60
CC(=O)N(Cc1ccc(-c2ccc(C)cc2)o1)C(Cc1ccc(-c2noc(-c3ccc(NC(=O)OC(C)(C)C)cc3)n2)c(F)c1)C(=O)O (stereo not shown) [Compound 5G] | > 60
CC(C)c1ccc(-n2cnc(C(=O)NC(Cc3ccc(-c4noc(-c5ccc(NC(=O)OC(C)(C)C)cc5)n4)c(F)c3)C(=O)O)n2)cc1 (stereo not shown) [Compound 3D] | > 60
CCc1ccc(-c2cccc(C(=O)NC(Cc3ccc(-c4noc(-c5ccc(NC(=O)OC(C)(C)C)cc5)n4)c(F)c3)C(=O)O)c2)cc1 (stereo not shown) [Compound 2I] | 40 to 60
CC(C)(C)OC(=O)Nc1ccc(-c2nc(-c3ccc(C[C@@H](NC(=O)c4cccc(-c5ccc(Cl)cc5F)c4)C(=O)O)cc3F)no2)cc1 [Compound 6C] | > 60
Cc1ccc(-c2cccc(C(=O)NC(Cc3ccc(-c4noc(C(=O)N5CCC(C)CC5)n4)c(F)c3)C(=O)O)c2)cc1 (stereo not shown) [Compound 5U] | > 60
CC(C)(C)OC(=O)Nc1ccc(C(=O)Oc2ccc3c(c2)CN(C(=O)c2ccc(NC(=O)OC(C)(C)C)cc2)C(C(=O)O)C3)cc1 (stereo not shown) [Compound 5X] | > 60
